# Results: US20250017881A1, “Fatty acids for ketosis control” (N.V. Nutricia, priority 2022, published 2025)
# “Also recorded” adds a separate entry of the source.
# Columns and labels:
# Type in all cases: cell-based
# [1] = tested on: mouse liver cells (Hepa1-6 cell line); test: Ketone production (beta-hydroxybutyrate in medium) by mouse liver cells; conditions: for beta-hydroxybutyrate production, fatty acid provided alone: provided alone to liver cells at 1 μM, 5 μM and 10 μM, 6 h ketogenic phase; for beta-hydroxybutyrate production when combined with 100 μM OA, versus 100 μM OA alone: test fatty acid 1 μM to 10 μM (1, 5, 10 μM) + 100 μM oleic acid; for production of ketones from 100 μM fatty acid blend (K-one): test fatty acid within 1 μM to 10 μM + 100 μM fatty acid blend; for ketone production in the absence of a ketogenic fat blend: 5 μM each, alone or in combination
# Experimental: An assay to measure ketone production in mouse liver cells (Hepa1-6 cell line) was used wherein cells were first grown to a monolayer (growth phase), then exposed to starvation to deplete cellular lipid stores and subsequently brought into a ketogenic phase wherein cells were cultured in presence of oleic acid or a ketogenic diet fat blend with or without the presence of one of C2, C4, C6 fatty acids, citrate and nicotinamide riboside (herein also referred to as C2, C4, C6, citrate and NR). The ketone body production was subsequently determined by measurement of beta-hydroxybutyrate in the cell culture medium according to the details set out below:
# Starvation phase: At the end of the growth phase the cells formed a monolayer. The medium was exchanged for DMEM containing 1 mM glucose and antibiotics (1% penicillin & streptomycin) but no FBS. The medium was further supplemented with L-carnitine (a required co-factor for the uptake of fatty acids into the mitochondria, where fatty acids are turned into ketones). The cells were incubated in this medium for 24 hours. During this time, the cells were vastly deprived of glucose, lipids and hormones contained in FBS, forcing them to consume and empty their lipid stores. […] Moreover, the starvation phase is thought to induce specific metabolic changes that maximize the production of ketones.
# Ketogenic phase: At the end of the starvation phase, the medium was exchanged for Krebs-Henseleit buffer (KHB) supplemented with the test nutrients (single fatty acids and fatty acid blend shown in table 1) and L-carnitine.
# The fatty acid blend is contained in a similar fatty acid composition to the one used in a ketogenic diet (K-one). The content of every fatty acid in the blend is given as the molar ratio to Oleic acid (OA), whose molar content is set to 1. Dilutions of this blend were used to determine the dose response curve in FIGS. 1B and 1D. C2 and C4 are not included in the blend.
# KHB is composed of salts and bicarbonate as a chemical buffer to maintain the osmotic pressure and acidity (pH) at physiological levels. Medium and long chain fatty acids are coupled to bovine serum albumin prior to the assay to make them soluble in KHB and allow their efficient uptake by the cells. The coupling is physiological since in humans, medium and long chain fatty acids are also normally coupled to albumin for transport in the blood circulation. Short chain fatty acids (C2, C4) were not coupled to albumin in the assay since they are water-soluble and circulate freely in humans. The cells were incubated for 6 hours at 37° C. During this time, they produce ketones from the test nutrients with little to no interference from other nutrients and secrete β-hydroxybutyrate (β-Hb) into the medium.
# β-Hb measurements: At the end of the ketogenic phase, the whole medium was collected and dried by vacuum centrifugation for 20 hours at 21° C. The dry pellet was resuspended in a small volume of assay buffer to yield a 10-20-fold higher β-Hb concentration than in the medium. The samples were deproteinized using spin columns to measure the free unbound fraction of R-Hb. […] The Fluorescence was measured on a fluorescence microplate reader and is directly proportional to the β-Hb concentration in the sample within a range of 0.1 μM to 50 μM β-Hb.
# [2] = tested on: mouse liver cells (Hepa1-6 cell line); test: Propionate viability assay (ATP content, bioluminescence)
# Experimental: Starvation phase: At the end of the growth phase the cells formed a monolayer. The medium was exchanged for DMEM containing 1 mM glucose and antibiotics (1% penicillin & streptomycin) but no FBS. The medium was further supplemented with L-carnitine (a required co-factor for the uptake of fatty acids into the mitochondria, where fatty acids are turned into ketones). […] The cells were incubated in this medium for 24 hours.
# [3] = tested on: NAD+ depleted mouse liver cells (Hepa1-6 cells); test: NAD+ replenishment of NAD+ depleted liver cells by NAD+ precursors
# Experimental: An assay was developed to measure NAD+ replenishment of NAD+ depleted mouse liver cells (Hepa1-6 cells) by NAD+ precursors under ketogenic diet-like conditions. In this assay, mouse liver cells were starved of glucose and depleted of NAD+ through incubation in a very low glucose (1 mM) medium free of vitamin B3, Trp and FBS and supplemented with 10 nM of an NAD+ depleting drug called FK866. Thereafter, the cells were fed with NR or NAM or Niacin (provided as a combination of NAM and nicotinic acid in a 1:1 molar ratio) or Trp to replenish the cells with NAD+. At the end of the supplementation phase, the cells were scraped and extracted using the NAD+ extraction buffer of the EnzyChrom™ NAD/NADH Assay Kit from BioAssay Systems. The NAD+ content of the cells was determined with the same kit following the manufacturer's manual. The NAD+ measurement is based on a […] reaction, in which NAD+ is reduced to NADH, which in turn reduces a formazan (MTT) reagent. The intensity of the reduced product color, measured at 565 nm, is proportional to the NAD+ concentration in the sample. This assay is highly specific for NAD+ and has minimal interference (<1%) by NADP+ or NADPH.
# [4] = tested on: NAD+ depleted mouse liver cells; test: Ketone production of NAD+ depleted liver cells replenished with NR; conditions: NR 10 μM
# Experimental: To measure the impact of replenishing NAD+ in liver cells with NR on ketone production, mouse liver cells were nutrient-deprived in medium containing low (1 mM) glucose and L-carnitine, but no fetal bovine serum, and no NAD+ precursors in the form of vitamin B3 (Niacin, NA, NAM) or Trp, Concomitantly the cells were treated with the NAD+ depleting drug FK866. These conditions created ketogenic diet like nutrient conditions and depleted the cells of NAD+. After 18 hours of incubation, FK866 was removed from the medium and a concentration range of NR was added to replenish NAD+ in liver cells. After 24 hours, the cells were switched to Krebs-Henseleit buffer (KHB) containing L-carnitine and a concentration range (1 μM to 100 μM) of oleic acid, a long chain fatty acid, for 6 hours to induce and measure the production and secretion of b-hydroxybutyrate (PHB) into the medium.
smiles,measurement,setting,value
"CCC(=O)O [C3, propionic acid]",reduction of beta-hydroxybutyrate yield compared to 100 μM fatty acid blend alone,"[1]; 1 μM, 5 μM and 10 μM C3 + 100 μM fatty acid blend",more than 60%
same,"beta-hydroxybutyrate production, fatty acid provided alone",[1],yielded no PHb
same,"beta-hydroxybutyrate production when combined with 100 μM OA, versus 100 μM OA alone",[1],less PHb than 100 μM OA alone; also recorded: inhibits the top-level production of ketones
same,production of ketones from 100 μM fatty acid blend (K-one),[1],dose-dependent manner; also recorded: inhibits the top-level production of ketones
same,"cytotoxicity, long-term assessment","[2]; 300 uM to 10 mM C3, 24-hour starvation plus 6-hour ketogenic phase",evident for the entire dose-range
same,"cytotoxicity, short-term exposure","[2]; 10 mM C3, 6-hours of exposure (ketogenic phase)",Cytotoxicity was already noted
same,cytotoxicity (ATP content) over the concentration range,[2]; C3 to 10 mM as printed,dose-dependent increase in cytotoxicity
"NC(=O)c1ccc[n+]([C@@H]2O[C@H](CO)[C@@H](O)[C@H]2O)c1 [NR, nicotinamide riboside]",increase of NAD+ content versus equimolar amounts of NAM or Niacin,[3]; 1 mM,significantly greater extent
same,increase of NAD+ content versus equimolar amounts of Niacin,[3]; lower concentrations below 150 μM,greater extent
same,NAD+ content of NAD+ depleted liver cells after provision,"[3]; within 24 hours of treatment, concentration range",dose-dependently replenishes NAD+ content to and above this baseline
same,top-level production of ketones,"[4]; 150 μM and 1000 μM for 24 h, then oleic acid 1 μM to 100 μM for 6 h",increased
same,NAD+ content,"[4]; 150 μM and 1000 μM, ketogenic diet like nutrient conditions",increased
O=C(O)CC(O)(CC(=O)O)C(=O)O [citrate],increase of ketone production from the fat blend,[1]; 200 μM to 1000 μM citrate + 100 μM fatty acid blend (K-one),10-20%
same,"ketone production, citrate provided alone","[1]; citrate alone, no fat blend",yielded no ketones
"CCCCCCCC/C=C\CCCCCCCC(=O)O [OA, oleic acid, reference compound]",concentration at which top-level (maximized) ketone production is achieved,"[1]; ketogenic substrate alone, dose-response curve",100 µM
"CC(=O)O [C2, acetic acid]","beta-hydroxybutyrate production when combined with 100 μM fatty acid blend, versus blend alone",[1]; 1 μM or 10 μM C2 + 100 μM fatty acid blend (K-one),slightly greater production of PHb
same,"beta-hydroxybutyrate production, fatty acid provided alone",[1],does not yield any ketones
same,"beta-hydroxybutyrate production, fatty acid provided alone",[1]; listed as 02,virtually no bHB
same,"beta-hydroxybutyrate production when combined with 100 μM OA, versus 100 μM OA alone",[1],more PHb than 100 μM OA alone; also recorded: enhances the production of ketones
same,production of ketones from 100 μM fatty acid blend (K-one),[1],enhances the production of ketones
"O=C(/C=C/c1cccnc1)NCCCCC1CCN(C(=O)c2ccccc2)CC1 [FK866, reference compound]",depletion of NAD+ relative to baseline NAD+ content of untreated liver cells,"[3]; 10 nM FK866, very low glucose medium",~70%
"CCCCCC(=O)O [C6, caproic acid]",ketone production in the absence of a ketogenic fat blend,[1]; no fat blend,hardly any ketones
same,concentration above which the fatty acid starts to be turned as a substrate into beta-hydroxybutyrate,"[1]; dose-response curve of the fatty acid alone, 1 μM to 100 μM",above 10 μM
same,"beta-hydroxybutyrate production when combined with 100 μM OA, versus 100 μM OA alone",[1],potentiates the production of ketones
same,production of ketones from 100 μM fatty acid blend (K-one),[1],potentiates the production of ketones
"CCCC(=O)O [C4, butyric acid]",ketone production in the absence of a ketogenic fat blend,[1]; no fat blend,hardly any ketones
same,"beta-hydroxybutyrate production when combined with 100 μM fatty acid blend, versus blend alone",[1]; 10 μM C4 + 100 μM fatty acid blend (K-one),more βHb than providing the 100 μM fatty acid blend alone
same,ketone production from a concentration range of fatty acid blend,"[1]; fixed 10 μM C4 + 1 μM to 100 μM fatty acid blend (K-one), versus blend without C4",increasingly enhanced the production of ketones
same,"beta-hydroxybutyrate production, fatty acid provided alone",[1],hardly yielded any PHb
same,"beta-hydroxybutyrate production when combined with 100 μM OA, versus 100 μM OA alone",[1],more PHb than providing 100 μM OA alone; also recorded: potentiates the production of ketones
same,production of ketones from 100 μM fatty acid blend (K-one),[1],potentiates the production of ketones
